In brackets after ≈: the same amount, converted by molar mass. Read-outs that look alike come from different tables or passages of the source.
Legend:
A. baumannii CDC-0033 = assay: microbe, parasite or virus in culture; assay type: cell-based; settings: Acinetobacter baumannii, CDC0033, read-out: MIC, A. baumannii CDC-0033
N. gonorrhoeae WHO G = assay: Liquid broth MIC in Fastidious broth; settings: Neisseria gonorrhoeae
A. baumannii 1258916 = assay: microbe, parasite or virus in culture; assay type: cell-based, Acinetobacter baumannii; settings: Acinetobacter baumannii, 1258916, read-out: MIC, A. baumannii 1258916
P. aeruginosa CDC-0110 = assay: microbe, parasite or virus in culture; assay type: cell-based; settings: Pseudomonas aeruginosa, CDC0110, read-out: Minimum inhibitory concentration, P. aeruginosa CDC-0110
N. gonorrhoeae WHO Q = assay: Liquid broth MIC in Fastidious broth; settings: Neisseria gonorrhoeae
[1] = biological target: T1, PBP3 from Acinetobacter baumannii (ATCC 19606) (Acinetobacter baumannii, UniProt A0ABX6CK25); assay: Bocillin-FL fluorescence polarization competition binding, A. baumannii PBP3; settings: fluorescence polarization competition binding assay using Bocillin-FL; read-out: A. baumannii PBP3 Potency
T1 sequence (A0ABX6CK25 64-610): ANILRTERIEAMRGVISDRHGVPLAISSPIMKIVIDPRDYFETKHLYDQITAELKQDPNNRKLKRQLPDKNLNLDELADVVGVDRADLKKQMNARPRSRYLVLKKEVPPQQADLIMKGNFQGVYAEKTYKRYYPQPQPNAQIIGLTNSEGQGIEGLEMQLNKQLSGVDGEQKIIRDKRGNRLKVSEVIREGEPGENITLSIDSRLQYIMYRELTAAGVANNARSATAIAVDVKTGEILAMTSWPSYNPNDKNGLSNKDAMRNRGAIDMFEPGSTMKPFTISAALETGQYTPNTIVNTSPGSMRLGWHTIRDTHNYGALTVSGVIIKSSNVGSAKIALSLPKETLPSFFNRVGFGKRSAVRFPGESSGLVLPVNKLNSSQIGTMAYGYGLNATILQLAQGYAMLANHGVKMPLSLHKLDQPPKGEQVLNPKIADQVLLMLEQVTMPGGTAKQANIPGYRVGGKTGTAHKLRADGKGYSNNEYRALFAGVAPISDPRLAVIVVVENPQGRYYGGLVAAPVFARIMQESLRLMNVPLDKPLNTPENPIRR
How it was run: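 Purified PBPs pre-incubated with inhibitor (E. coli PBP3 1.5 μM, 30 min; P. aeruginosa PBP3 0.75 μM, A. baumannii PBP1a 1 μM and PBP3 0.2 μM, 15 min), then Bocillin-FL 0.1 μM (0.05 μM for PBP1a) added; FP read up to 60 min. EC50 = concentration halving bound Bocillin-FL.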

A. baumannii CDC-0036 = assay: microbe, parasite or virus in culture; assay type: cell-based; settings: Acinetobacter baumannii, CDC0036, read-out: MIC, A. baumannii CDC-0036
P. aeruginosa CDC-0095 = assay: microbe, parasite or virus in culture; assay type: cell-based; settings: Pseudomonas aeruginosa, CDC0095, read-out: Minimum inhibitory concentration, P. aeruginosa CDC-0095
[2] = tested on: B. thailandensis ATCC 700388; assay: microbe, parasite or virus in culture; assay type: cell-based; settings: Burkholderia thailandensis, ATCC700388, read-out: Minimum inhibitory concentration (MIC), B. thailandensis ATCC 700388
P. aeruginosa ATCC 27853 = assay: microbe, parasite or virus in culture; assay type: cell-based; settings: Pseudomonas aeruginosa, ATCC27853, read-out: Minimum inhibitory concentration, P. aeruginosa ATCC 27853
N. gonorrhoeae MS11 = assay: Liquid broth MIC in Fastidious broth; settings: Neisseria gonorrhoeae
[3] = read-out: Minimum Inhibitory Concentration (MIC), N. gonorrhoeae WHO G
[4] = read-out: Minimum Inhibitory Concentration (MIC), N. gonorrhoeae WHO Q
[5] = MS11, read-out: Minimum Inhibitory Concentration (MIC), N. gonorrhoeae MS11
[6] = read-out: Minimum Inhibitory Concentration, WHO G
[7] = read-out: Minimum Inhibitory Concentration, WHO Q
[8] = MS11, read-out: Minimum Inhibitory Concentration, MS11

| Structure (SMILES) | MIC (A. baumannii CDC-0033) [µg/mL] | MIC (N. gonorrhoeae WHO G; [3]) [µg/mL] | MIC (A. baumannii 1258916) [µg/mL] | MIC (P. aeruginosa CDC-0110) [µg/mL] | MIC (N. gonorrhoeae WHO Q; [4]) [µg/mL] | IC50 [1] [µM] | MIC (A. baumannii CDC-0036) [µg/mL] | MIC (P. aeruginosa CDC-0095) [µg/mL] | MIC [2] [µg/mL] | MIC (P. aeruginosa ATCC 27853) [µg/mL] | MIC (N. gonorrhoeae MS11; [5]) [µg/mL] | MIC (N. gonorrhoeae WHO G; [6]) [µg/mL] | MIC (N. gonorrhoeae WHO Q; [7]) [µg/mL] | MIC (N. gonorrhoeae MS11; [8]) [µg/mL] |
| --- | --- | --- | --- | --- | --- | --- | --- | --- | --- | --- | --- | --- | --- | --- |
| O=C(NCCN1CCN(C(=O)NC(C(=O)N[C@H]2Cc3ccc(F)c(C(=O)O)c3OB2O)c2cc(F)c(O)c(O)c2Cl)C1=O)c1ccc(O)cc1 (stereo partly drawn) [Example 243, (3R)-3-(2-(2-chloro-5-fluoro-3,4-dihydroxyphenyl)-2-(3-(2-(4-hydroxybenzamido)ethyl)-2-oxoimidazolidine-1-carboxamido)acetamido)-7-fluoro-2-hydroxy-3,4-dihydro-2H-benzo[e][1,2]oxaborinine-8-carboxylic acid] | 2 to 4 (≈ 2.79 to 5.57 µM) | 16 to 32 (≈ 22.3 to 44.6 µM) | < 1 | < 1 | > 64 | < 10 | < 1 | 8 to 16 (≈ 11.1 to 22.3 µM) | 2 to 4 (≈ 2.79 to 5.57 µM) | < 1 | 16 to 32 (≈ 22.3 to 44.6 µM) |  |  |  |
| O=C(NCCN1CCN(C(=O)NC(C(=O)N[C@H]2Cc3ccc(F)c(C(=O)O)c3OB2O)c2cc(F)c(O)c(O)c2Cl)C1=O)c1cccc(O)c1 (stereo partly drawn) [Example 244, (3R)-3-(2-(2-chloro-5-fluoro-3,4-dihydroxyphenyl)-2-(3-(2-(3-hydroxybenzamido)ethyl)-2-oxoimidazolidine-1-carboxamido)acetamido)-7-fluoro-2-hydroxy-3,4-dihydro-2H-benzo[e][1,2]oxaborinine-8-carboxylic acid] | 2 to 4 (≈ 2.79 to 5.57 µM) | 16 to 32 (≈ 22.3 to 44.6 µM) | < 1 | 2 to 4 (≈ 2.79 to 5.57 µM) | > 64 | < 10 | 2 to 4 (≈ 2.79 to 5.57 µM) | 32 to 64 (≈ 44.6 to 89.2 µM) | > 128 | 2 to 4 (≈ 2.79 to 5.57 µM) | > 64 |  |  |  |
| O=C(NCCN1CCN(C(=O)NC(C(=O)N[C@H]2Cc3ccc(F)c(C(=O)O)c3OB2O)c2cc(F)c(O)c(O)c2Cl)C1=O)c1ccncc1 (stereo partly drawn) [Example 245, (3R)-3-(2-(2-chloro-5-fluoro-3,4-dihydroxyphenyl)-2-(3-(2-(isonicotinamido)ethyl)-2-oxoimidazolidine-1-carboxamido)acetamido)-7-fluoro-2-hydroxy-3,4-dihydro-2H-benzo[e][1,2]oxaborinine-8-carboxylic acid] | 8 to 16 (≈ 11.4 to 22.8 µM) | 16 to 32 (≈ 22.8 to 45.5 µM) | < 1 | < 1 | > 64 | < 10 | 2 to 4 (≈ 2.85 to 5.69 µM) | 2 to 4 (≈ 2.85 to 5.69 µM) | 2 to 4 (≈ 2.85 to 5.69 µM) | 2 to 4 (≈ 2.85 to 5.69 µM) | 16 to 32 (≈ 22.8 to 45.5 µM) |  |  |  |
| O=C(NCCN1CCN(C(=O)NC(C(=O)N[C@H]2Cc3ccc(F)c(C(=O)O)c3OB2O)c2cc(F)c(O)c(O)c2Cl)C1=O)c1cccnc1 (stereo partly drawn) [Example 246, (3R)-3-(2-(2-chloro-5-fluoro-3,4-dihydroxyphenyl)-2-(3-(2-(nicotinamido)ethyl)-2-oxoimidazolidine-1-carboxamido)acetamido)-7-fluoro-2-hydroxy-3,4-dihydro-2H-benzo[e][1,2]oxaborinine-8-carboxylic acid] | 2 to 4 (≈ 2.85 to 5.69 µM) |  | < 1 | < 1 |  | < 10 | 2 to 4 (≈ 2.85 to 5.69 µM) | 2 to 4 (≈ 2.85 to 5.69 µM) | 2 to 4 (≈ 2.85 to 5.69 µM) | 2 to 4 (≈ 2.85 to 5.69 µM) |  | 16 to 32 (≈ 22.8 to 45.5 µM) | > 64 | 16 to 32 (≈ 22.8 to 45.5 µM) |
| O=C(NCCN1CCN(C(=O)NC(C(=O)N[C@H]2Cc3ccc(F)c(C(=O)O)c3OB2O)c2cc(F)c(O)c(O)c2Cl)C1=O)c1nccs1 (stereo partly drawn) [Example 247, (3R)-3-(2-(2-chloro-5-fluoro-3,4-dihydroxyphenyl)-2-(2-oxo-3-(2-(thiazole-2-carboxamido)ethyl)imidazolidine-1-carboxamido)acetamido)-7-fluoro-2-hydroxy-3,4-dihydro-2H-benzo[e][1,2]oxaborinine-8-carboxylic acid] | 2 to 4 (≈ 2.82 to 5.64 µM) |  | < 1 | < 1 |  | < 10 | < 1 | 2 to 4 (≈ 2.82 to 5.64 µM) | < 1 | 2 to 4 (≈ 2.82 to 5.64 µM) |  | 16 to 32 (≈ 22.6 to 45.1 µM) | 16 to 32 (≈ 22.6 to 45.1 µM) | 16 to 32 (≈ 22.6 to 45.1 µM) |
| O=C(O)c1c(F)ccc2c1OB(O)[C@@H](NC(=O)C(NC(=O)N1CCN(CCNC(=O)[C@@H]3CCCN3)C1=O)c1cc(F)c(O)c(O)c1Cl)C2 (stereo partly drawn) [Example 248, (3R)-3-(2-(2-chloro-5-fluoro-3,4-dihydroxyphenyl)-2-(2-oxo-3-(2-((S)-pyrrolidine-2-carboxamido)ethyl)imidazolidine-1-carboxamido)acetamido)-7-fluoro-2-hydroxy-3,4-dihydro-2H-benzo[e][1,2]oxaborinine-8-carboxylic acid] | 2 to 4 (≈ 2.88 to 5.76 µM) |  | < 1 | < 1 |  | < 10 | 2 to 4 (≈ 2.88 to 5.76 µM) | 8 to 16 (≈ 11.5 to 23 µM) | 2 to 4 (≈ 2.88 to 5.76 µM) | 2 to 4 (≈ 2.88 to 5.76 µM) |  | 16 to 32 (≈ 23 to 46.1 µM) | 16 to 32 (≈ 23 to 46.1 µM) | 16 to 32 (≈ 23 to 46.1 µM) |
| O=C(NCCN1CCN(C(=O)NC(C(=O)N[C@H]2Cc3ccc(F)c(C(=O)O)c3OB2O)c2cc(F)c(O)c(O)c2Cl)C1=O)Nc1cccc(O)c1 (stereo partly drawn) [Example 249, (3R)-3-(2-(2-chloro-5-fluoro-3,4-dihydroxyphenyl)-2-(3-(2-(3-(3-hydroxyphenyl)ureido)ethyl)-2-oxoimidazolidine-1-carboxamido)acetamido)-7-fluoro-2-hydroxy-3,4-dihydro-2H-benzo[e][1,2]oxaborinine-8-carboxylic acid] | 2 to 4 (≈ 2.73 to 5.46 µM) |  | < 1 | < 1 |  | < 10 | 2 to 4 (≈ 2.73 to 5.46 µM) | 32 to 64 (≈ 43.7 to 87.3 µM) | 2 to 4 (≈ 2.73 to 5.46 µM) | 2 to 4 (≈ 2.73 to 5.46 µM) |  | 16 to 32 (≈ 21.8 to 43.7 µM) | > 64 | 16 to 32 (≈ 21.8 to 43.7 µM) |
| O=C(NCCN1CCN(C(=O)NC(C(=O)N[C@H]2Cc3ccc(F)c(C(=O)O)c3OB2O)c2cc(F)c(O)c(O)c2Cl)C1=O)Nc1ccncc1 (stereo partly drawn) [Example 250, (3R)-3-(2-(2-chloro-5-fluoro-3,4-dihydroxyphenyl)-2-(2-oxo-3-(2-(3-(pyridin-4-yl)ureido)ethyl)imidazolidine-1-carboxamido)acetamido)-7-fluoro-2-hydroxy-3,4-dihydro-2H-benzo[e][1,2]oxaborinine-8-carboxylic acid] | 2 to 4 (≈ 2.79 to 5.57 µM) |  | < 1 | 2 to 4 (≈ 2.79 to 5.57 µM) |  | < 10 | 2 to 4 (≈ 2.79 to 5.57 µM) | 32 to 64 (≈ 44.6 to 89.2 µM) | > 128 | 2 to 4 (≈ 2.79 to 5.57 µM) |  | > 64 | > 64 | 16 to 32 (≈ 22.3 to 44.6 µM) |

Source: patent US20240270762A1, “PENICILLIN-BINDING PROTEIN INHIBITORS” (priority 2021, published 2024)
